# Source: patent US3941842A, “P,P'-Disubstituted α-trichloromethylbenzylanilines” (priority 1972, dated 1976)
# “Also recorded” adds a separate entry of the source.
# How the values were obtained:
# [1] = system: Phormia regina; assay: whole plant or invertebrate; details: topical
# Procedure: The compounds of the present invention were tested for insecticidal activity by standard methods, and compared with the insecticidal activities of DDT and symmetrical analogs of DDT, such methoxychlor. Toxicological methods for the determination of the topical LD50 values to adult female SNAIDM and RSP houseflies, Musca domestica L. and to Phormia regina, and LC50 values to Culex pipiens quinquefasciatus Say, and Anopheles albimanus Weid mosquitoes were described by Metcalf el al., 44 Bull. World Health Org. […] The methods for evaluation of metabolism by mouse liver homogenate and by female RSP housefly and salt-marsh caterpillar larvae Estigmene acrea Drury, were described by Kapoor et al., 18 J. Agr. […] The techniques for model eocsystem evluation were described by Metcalf et al., 5 J. Environ. Sci. Tech.
# (§1) Since piperonyl butoxide serves to block the action of MFO, the synergized LD50 values express the intrinsic toxicity of the compounds. With the detoxifying action of MFO enzymes blocked, the intrinsic toxicity of the compounds can thus be measured.
# [2] = Metabolism of 3H-labeled compound by mouse liver homogenate
# Procedure: (§2) The compounds of the present invention were tested for insecticidal activity by standard methods, and compared with the insecticidal activities of DDT and symmetrical analogs of DDT, such methoxychlor. Toxicological methods for the determination of the topical LD50 values to adult female SNAIDM and RSP houseflies, Musca domestica L. and to Phormia regina, and LC50 values to Culex pipiens quinquefasciatus Say, and Anopheles albimanus Weid mosquitoes were described by Metcalf el al., 44 Bull. World Health Org. 363 (1971). The methods for evaluation of metabolism by mouse liver homogenate and by female RSP housefly and salt-marsh caterpillar larvae Estigmene acrea Drury, were described by Kapoor et al., 18 J. Agr. Food Chem. 1145 (1970). The techniques for model eocsystem evluation were described by Metcalf et al., 5 J. Environ. Sci. Tech. 709 (1971).
# (§3) The biodegradability of an insecticide may be measured by administering measured doses of a tritium labeled test insecticide to a subject. Some time later the subject is sacrificed, liquefied, and a sample of the liquefied insect is placed on a thin layer chromotagraphy (tlc) plate. The plate is developed in a suitable solvent and Rf values of the various compounds contained in the sample are measured against known Rf values of previously synthesized theoretical metabolic breakdown products. The amount of each metabolite present may thus be measured by measuring the ^3 H at each separately resolved spot on the tlc plate. A permanent record may be made by exposing film to the plate to form a ratioautograph.
# [3] = Model ecosystem: distribution, ecological magnification and Biodegradability Index; details: for ecological magnification (E.M.): ratio of parent material in fish to concentration in water
# Source text: After the amounts of the various metabolites have been calculated and a determination is made as to which of the metabolites are to be designated as "polar" and which are to be designated as "non-polar", a Biodegradability Index (amount of polar metabolites/amount of nonpolar metabolites) may be calculated. Remembering that nonpolar compounds, such as DDT are readily soluble in the fatty tissues, but are not readily soluble in water based solutions, and that the cell fluid is essentially a water based solution, the lower the Biodegradability Index, the lower the amount of biodegradability of the compound. The higher the amount of polarity, the greater the likelihood that the polar compound will dissolve in water, a very polar compound, and be eliminated from the cell.
# The environmental fate of any new pesticide is a factor of paramount importance in determining how and where it might be used. The behavior of ^3 H-α-trichloromethyl-p-ethoxybenzyl-p-ethoxyaniline has been studied by the model ecosystem technique following application of 5.0 mg. of labeled compound to Sorghum plants. A summary of
# metabolites from the organisms in the model ecosystem after 33 days were
# identified by cochromatography with standards of known constitution, by
# appropriate chromogenic reagents, and by high-resolution mass
# spectrometry. The data of Table IV indicate the O-dealkylation of
# Food Chem. 1 (1972). Ethoxychlor was found in the snail to 58.6 ppm and in the fish to 0.92 ppm, along with its ethylene and the mono- and bis-phenols formed by O-dealkylation. The ecological magnification (E.M.) of ethoxychlor, defined as the ratio of the parent material in the fish to the concentration in the water, was 1500-fold as compared with an E.M. of only 0.7-fold for the ethoxyaniline.
# Comparing the Biodegradability Indices (B.I.=total recovered polar metabolites/total recovered nonpolar metabolites) the values are 0.44 for ethoxychlor and 2.0 for ethoxyaniline.
# [4] = system: Musca domestica Rsp; assay: Topical LD50 to adult female RSP houseflies
# Procedure: as §2, §1
# [5] = system: Salt-marsh caterpillar; assay: Metabolism of 3H-ethoxyaniline by salt-marsh caterpillar larvae
# Procedure: as §2, §3
# [6] = system: Musca domestica Snaidm; assay: Topical LD50 to adult female SNAIDM houseflies
# Procedure: as §2, §1
# [7] = system: Culex fatigans larvae; assay: LC50 to Culex fatigans larvae; type: in vivo, Culex pipiens quinquefasciatus Say
# Source text: (§4) World Health Org. 363 (1971). […] Food Chem. 1145 (1970). […] Sci. Tech. 709 (1971). The results are detailed in Table II. ##SPC1##
# [8] = system: Female housefly; assay: Metabolism of 3H-ethoxyaniline by female RSP housefly
# Procedure: as §2, §3
# [9] = system: Anopheles albimanus larvae; assay: LC50 to Anopheles albimanus larvae; type: in vivo, Anopheles albimanus Weid
# Source text: as §4
# [10] = background; cited from earlier work
# [11] = system: multifunction oxidase (MFO) enzymes; details: background; cited from earlier work
# [12] = system: insects; details: background; cited from earlier work
# [13] = background; cited from earlier work; remark: listed apart in the source
# [14] = synergistic ratio: LD50 alone/LD50 synergized with piperonyl butoxide
# [15] = female RSP housefly, topical 1.0 μg, 24 hr
smiles,measurement,setting,value
"CCOc1ccc(NC(c2ccc(OCC)cc2)C(Cl)(Cl)Cl)cc1 (stereo not drawn) [Compound III, α-trichloromethyl-p-ethoxybenzyl-p-ethoxyaniline]",LD50,"[1]; Phormia regina, read-out: Topical LD50, Phormia regina, Alone",33.7 mg/kg
same,"Topical LD50, Phormia regina, with pb",[1]; synergized with piperonyl butoxide,9.7 μg per g
same,"Mouse liver, percent 3H in homogenate","[2]; 0.01 μM 3H-labeled compound III, 1 hr incubation, NADPH and nicotinamide",30%
same,metabolic pathway (in words),"[2]; mouse liver homogenate, 1 hr",attacked by O-dealkylation to produce either one or both of the monophenolic derivatives
same,Concentration of ethoxyaniline equivalents in Culex (mosquito),"[3]; Culex (mosquito), 33 days, 5.0 mg 3H-ethoxyaniline to Sorghum",0.28 ppm
same,Concentration of ethoxyaniline equivalents in Gambusia (fish),"[3]; Gambusia (fish), 33 days, 5.0 mg 3H-ethoxyaniline to Sorghum",0.04 ppm
same,Concentration of ethoxyaniline equivalents in H2O,"[3]; H2O, 33 days, 5.0 mg 3H-ethoxyaniline to Sorghum",0.055 ppm
same,Concentration of ethoxyaniline equivalents in Oedogonium (algae),"[3]; Oedogonium (algae), 33 days, 5.0 mg 3H-ethoxyaniline to Sorghum",1.09 ppm
same,Concentration of ethoxyaniline equivalents in Physa (snail),"[3]; Physa (snail), 33 days, 5.0 mg 3H-ethoxyaniline to Sorghum",22.68 ppm
same,biodegradability (in words),[3]; model ecosystem comparison,substantially biodegradable; also recorded: by far superior in both E.M. and B.I
same,ecological magnification (E.M.),[3],0.7 fold
same,Total 3H in Culex (mosquito) (ethoxyaniline equivalents),"[3]; total 3H, Culex, 33 days",1.0 ppm
same,Total 3H in Gambusia (fish) (ethoxyaniline equivalents),"[3]; total 3H, Gambusia, 33 days",0.30 ppm
same,Total 3H in H2O (ethoxyaniline equivalents),"[3]; total 3H, H2O, 33 days",0.363 ppm
same,Total 3H in Oedogonium (algae) (ethoxyaniline equivalents),"[3]; total 3H, Oedogonium, 33 days",3.03 ppm
same,Total 3H in Physa (snail) (ethoxyaniline equivalents),"[3]; total 3H, Physa, 33 days",36.0 ppm
same,LD50,"[4]; Musca domestica, topical, read-out: Topical LD50, Musca domestica Rsp, Alone",20.5 mg/kg
same,"Topical LD50, Musca domestica Rsp, with pb","[4]; RSP strain, synergized with piperonyl butoxide, topical",6.5 μg per g
same,"SR, Musca domestica Rsp",[4]; [14],3.2
same,3H recovered in excreta,"[5]; 4th instar larvae, 0.5 mg fed, 24 hr",75%
same,"Salt-marsh caterpillar, percent 3H in Excreta","[5]; 24 hr after feeding 0.5 mg 3H-ethoxyaniline (compound III), excreta",2.5%
same,"Salt-marsh caterpillar, percent 3H in Homogenate","[5]; 24 hr after feeding 0.5 mg 3H-ethoxyaniline (compound III), homogenate",9.0%
same,LD50,"[6]; Musca domestica, topical, read-out: Topical LD50, Musca domestica Snaidm, Alone",15.5 mg/kg
same,"Topical LD50, Musca domestica Snaidm, with pb","[6]; SNAIDM strain, synergized with piperonyl butoxide, topical",4.2 μg per g
same,"SR, Musca domestica Snaidm",[6]; [14],3.7
same,LC50 Culex fatigans larvae,[7],0.19 ppm
same,"Female housefly, percent 3H in Excreta","[8]; 24 hr after topical 1.0 μg 3H-ethoxyaniline (compound III), excreta",22.9%
same,"Female housefly, percent 3H in Homogenate","[8]; 24 hr after topical 1.0 μg 3H-ethoxyaniline (compound III), homogenate",37.6%
same,3H recovered as body homogenate,[8]; [15],65%
same,3H recovered as body wash,[8]; [15],19.2%
same,3H recovered as excreta,[8]; [15],10%
same,recovery of the 3H,"[8]; female RSP housefly, topical 1.0 μg, 24 hr, total",94.2%
same,metabolic pathway in insect and mammal (in words),"[8]; insects (housefly, caterpillar) and mouse liver homogenate",metabolized in both the insect and the mammal by O-dealkylation to form both mono- and bis- phenols
same,LC50 Anopheles albimanus larvae,[9],0.28 ppm
"Clc1ccc(C(c2ccc(Cl)cc2)C(Cl)(Cl)Cl)cc1 [DDT, 1,1,1 trichloro-2,2-bis(p-chlorophenyl)ethane]",accumulation in animal tissues (in words),[10],accumulation in the fatty or lipid tissues of animals
same,biodegradability (in words),[11],not biodegradable
same,susceptibility to MFO enzymes (in words),[11],do not function on DDT and its metabolic derivatives DDE and DDD
same,ecological magnification (E.M.),[3],"84,000 fold"
same,Biodegradability Index (B.I.),[3]; total recovered polar/total recovered nonpolar metabolites,0.015
same,insecticidal activity (in words),[12],effective contact or residual insecticide
same,lipid solubility (in words),[13],high lipid solubility
same,water solubility (in words),[13],very low water solubility
"COc1ccc(C(c2ccc(OC)cc2)C(Cl)(Cl)Cl)cc1 [methoxychlor, 1,1,1-trichloro-,2,2-bis(p-methoxyphenyl)ethane]",accumulation in animal tissues (in words),[10],not generally accumulated in animal tissues
same,susceptibility to MFO enzymes (in words),[11],readily attacked by MFO enzymes
same,insecticidal activity (in words),[12],considerably less insecticidal activity than DDT towards other species of insects
